Assay in all cases: DTP human tumour cell line panel, 48 h
The subject of assay [1] is MOLT-4 leukemia.
For assay [2], the system named is HS 578T breast.
The subject of assay [3] is HCT-116 colon.
The subject of assay [4] is SW-620 colon.
The subject of assay [5] is ACHN renal.
The test system of assay [6] is RPMI-8226 leukemia.
In assay [7] the test system is M14 melanoma.
For assay [8], the system named is SK-OV-3 ovarian.
In assay [9] the test system is SF-268 CNS.
In assay [10] the test system is LOX IMVI melanoma.

GI50 and TGI data for five compounds are collected here from PubChem BioAssay (NCI).

“And” between values parts separate entries of the source, which are not always exact repeats. Equal values may be shown once.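 Cultured in 96-well plates, cells were exposed to test compound for 48 hours across five concentrations. The concentration for 50% growth inhibition is given as GI50. The concentration for full growth arrest is given as TGI.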

Broadly, the GI50 is the concentration giving 50% growth inhibition. For orientation: TGI means the concentration at which net growth stops. The low end stands for more potent growth arrest, the high end for less potent growth arrest.

As to `Cc1ncc(C(=O)Nc2ccc(CN3CCN(C)CC3)c(C(F)(F)F)c2)cc1C#Cc1cnc(NC2CC2)c2ncccc12`, the GI50 is 0.519 µM in assay [1]; 1.19 µM in [2]; 0.578 µM in [3]; 0.714 µM in [4]; 0.577 µM in assay [5]; 0.621 µM in assay [6]. Also, the GI50 in assay [7] is 0.56 µM; in [8], 3.39 µM; in assay [9], 0.755 µM; in assay [10], 0.59 µM. Besides, the TGI in assay [1] was 1.17 µM; in [2], 4.44 µM; in assay [3], 1.07 µM; in assay [4], 1.33 µM; in [5], 1.04 µM; in assay [6], 1.62 µM. Also, the TGI in assay [7] was found to be 1.11 µM; in assay [8], 7.66 µM; in assay [9], 1.48 µM; in assay [10], 1.11 µM.

Take `CCCCCCCCCCN=C(c1ccc(N(C)C)cc1)c1ccc(N(C)C)cc1`: the GI50 in assay [1] was 0.416 µM; in [2], 1.02 µM; in [3] it was 0.423 µM; in assay [4], 0.425 µM; in assay [5], 2.47 µM; in [6], 0.673 µM. Also, the concentration for 50% growth inhibition (GI50) in assay [7] was 0.328 µM; in [8] it was 1.44 µM; in [9], 3.4 µM; in assay [10] it was 0.601 µM. The TGI in assay [1] is 30.8 µM; in [2], 39.1 µM; in assay [3] it was 32.9 µM; in assay [4] it was over 100 µM; in [5], over 73.9 µM; in assay [6], 16.3 µM. Moreover, the TGI in assay [7] was 26.4 µM; in assay [8], 40.3 µM; in [9], 67.9 µM; in assay [10], over 96.1 µM.

As to `C=C1CC2(OC1=O)C(=O)N(CCCN1C(=O)C3(CC(=C)C(=O)O3)c3ccccc31)c1ccccc12` (stereo not given), the GI50 in assay [1] was 0.419 µM; in assay [2], 3.43 µM; in assay [3], 1.84 µM; in assay [4], 0.594 µM; in assay [5] it was 1.15 µM; in assay [6], 0.579 µM. Further, the GI50 in [7] is 1.68 µM; in assay [8], 11.4 µM; in assay [9], 3.32 µM; in [10], 0.805 µM. The TGI amounted to 1.93 µM in assay [1]; 51.5 µM in assay [2]; 3.75 µM in assay [3]; 2.08 µM in assay [4]; 2.36 µM in [5]; 2.78 µM in assay [6]. The TGI in [7] turned out to be 3.67 µM; in assay [8], 23.7 µM; in assay [9], 12 µM; in [10], 2.1 µM.

Regarding `CCN(CC)CCNC(=O)c1c(C)[nH]c(/C=C2\C(=O)Nc3ccc(F)cc32)c1C`, the GI50 in [1] is 1.1 µM and 2.73 µM and 1.7 µM; in assay [2], 3.01 µM and 3.57 µM and 2.4 µM; in [3], 1.32 µM and 1.38 µM and 1.16 µM; in assay [4], 1.76 µM and 1.95 µM and 1.4 µM; in [5] it was 1.77 µM and 1.53 µM and 1.32 µM; in assay [6], 2.93 µM and 4.58 µM and 1.46 µM. The GI50 in assay [7] was 0.574 µM and 1.03 µM and 0.687 µM; in assay [8], 2.44 µM and 2.26 µM and 3.51 µM; in assay [9] it was > 10 µM and 2.73 µM and 4.57 µM; in [10], 1.29 µM and 2.29 µM and 1.32 µM. Also, the TGI in assay [1] was > 10 µM and 20 µM and 9.05 µM; in assay [2] it was > 10 µM and 17.7 µM and 15.3 µM; in assay [3], 5.25 µM and 3.85 µM and 3.09 µM; in assay [4], 7.67 µM and 5.22 µM and 4.22 µM; in assay [5] it was > 10 µM and 6.48 µM and 9.5 µM; in assay [6] it was > 10 µM and 10.9 µM and 5.31 µM. Further, the TGI in [7] was 2.33 µM and 3.56 µM and 2.23 µM; in assay [8], > 10 µM and 5.43 µM and 19.6 µM; in assay [9], > 10 µM and 6.09 µM and 16.9 µM; in assay [10], 2.92 µM and 5.01 µM and 3 µM.

As to `Cc1nc(Nc2n[nH]c3c2CN(C(=O)N[C@H](CN(C)C)c2ccccc2)C3(C)C)c2sccc2n1`, the GI50 in assay [1] is 0.092 µM and 0.276 µM; in assay [2], 0.144 µM and 0.469 µM; in assay [3], 0.00577 µM and < 0.01 µM; in [4], 0.0244 µM and 0.0346 µM; in assay [5], 0.432 µM and 0.337 µM; in assay [6], 0.148 µM and 0.107 µM. Moreover, the GI50 in assay [7] is 0.0586 µM and 0.103 µM; in assay [8], 0.317 µM and 0.205 µM; in assay [9], 0.177 µM and 0.427 µM; in [10], 0.0087 µM and < 0.0119 µM. Moreover, the total growth inhibition concentration (TGI) in assay [1] was 9.74 µM and 7.04 µM; in assay [2], > 5.44 µM and 14.7 µM; in assay [3], > 5.74 µM and 10.3 µM; in [4], over 38.7 µM; in assay [5] it was over 75 µM; in assay [6], > 4.74 µM and 5.69 µM. Moreover, the concentration for total growth inhibition (TGI) in assay [7] was > 3.22 µM and 8.37 µM; in [8], > 5.94 µM and 14.7 µM; in assay [9], > 4.61 µM and 5.23 µM; in assay [10] it was 1.38 µM and 2.16 µM.
